The results in this text go back to ChEMBL document CHEMBL4476871, “SULFAMIDE AND SULFAMATE INHIBITORS OF hHint1” (2018).

The nature of series [1]: Solubility of the compound in water. The following applies: buffer. The format is physicochemical.
A short description of series [2]: Aqueous solubility of the compound. The format is physicochemical. The following applies: buffer.
Series [3] can be described thus: Solubility of the compound in DMSO. The format is physicochemical.
For series [4], the target named is T1, Adenosine 5'-monophosphoramidase HINT1 (Homo sapiens, UniProt P49773). As to the kind of experiment: Binding affinity to full-length human N-terminal His6-tagged Hint1 expressed in Escherichia coli Rosetta 2 pLysS cells by isothermal titration calorimetry.
T1 sequence (P49773 whole entry): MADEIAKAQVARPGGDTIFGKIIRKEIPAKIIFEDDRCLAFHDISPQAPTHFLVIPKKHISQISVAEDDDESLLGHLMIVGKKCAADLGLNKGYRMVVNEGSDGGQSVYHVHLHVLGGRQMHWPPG
In series [5] the test system is Mus musculus. As to the kind of experiment: Suppression of morphine-induced analgesic tolerance in ICR mouse model of spared nerve injury-induced neuropathic pain assessed as reduction in mechanical hypersensitivity administered intrathecally for 3 days prior to morphine challenge on day 4 by Von Frey test. The format is functional. The following applies: central.

The test system of series [6] is Mus musculus. Description: Effect on spared nerve injury-induced ICR mouse model of neuropathic pain administered intrathecally for 3 days by Von Frey test. The format is functional. To be noted: central, 72 h.
For series [7], the system named is Mus musculus. As to the kind of experiment: Effect on spared nerve injury-induced ICR mouse model of neuropathic pain administered intrathecally for 3 days by Von Frey test relative to control. The class given is functional.
The subject of series [8] is Mus musculus. As to the kind of experiment: Suppression of morphine-induced analgesic tolerance in ICR mouse model of spared nerve injury-induced neuropathic pain assessed as reduction in mechanical hypersensitivity administered intrathecally for 3 days prior to morphine challenge on day 4 by Von Frey test relative to control. The format is functional.
Series [9] has as its target T1, Adenosine 5'-monophosphoramidase HINT1. As to the kind of experiment: Inhibition of human N-terminal His6-tagged Hint1 expressed in Escherichia coli Rosetta 2 pLysS cells by fluorescence assay.

Structures are written as SMILES.

For `Nc1nc2c(ncn2[C@@H]2O[C@H](CSP(=O)(O)NCCc3c[nH]c4ccccc34)[C@@H](O)[C@H]2O)c(=O)[nH]1`, the solubility entry in series [1] is “Soluble”.
In the case of `Nc1nc2c(ncn2C2OC(COS(=O)(=O)NC(=O)CCc3c[nH]c4ccccc34)C(O)C2O)c(=O)[nH]1` (single isomer, unassigned), the solubility entry in series [2] is given as “Soluble”.
On to `CCNC(=O)OC[C@H]1O[C@@H](n2cnc3c(N)nc(N)nc32)[C@H](O)[C@@H]1O`, for which the solubility entry in series [3] is listed as “Soluble”. Moreover, the affinity in series [4], expressed as Kd, was 2.45 µM.
For `Nc1nc2c(ncn2[C@@H]2O[C@H](COC(=O)NCCc3c[nH]cn3)[C@@H](O)[C@H]2O)c(=O)[nH]1` the same measures were “Soluble” and 3.43 µM.
For `Nc1nc(N)c2ncn([C@@H]3O[C@H](COC(=O)Nc4ccccc4)[C@@H](O)[C@H]3O)c2n1` the same measures were “Soluble” and 1.01 µM.
For `Nc1nc2c(ncn2[C@@H]2O[C@H](COP(=O)(O)NCCc3c[nH]c4ccccc34)[C@@H](O)[C@H]2O)c(=O)[nH]1`, the solubility entry in series [2] is reported as “Soluble”.
Turning to `CCN(CC)C(=O)OC[C@H]1O[C@@H](n2cnc3c(=O)[nH]c(N)nc32)[C@H](O)[C@@H]1O`, the solubility result in series [3] is “Soluble”. In [4], this molecule had a dissociation constant (Kd) of 47.2 µM.
In the case of `Nc1nc2c(ncn2[C@@H]2O[C@H](COC(=O)NCCc3c[nH]c4ccccc34)[C@@H](O)[C@H]2O)c(=O)[nH]1`, the solubility result in series [3] is reported as “Soluble”. Besides, the ED50 in the series with Mus musculus [5] was determined as 2.6 mg/kg; with Mus musculus [6], 2.3 mg/kg. The “fold change (FC)” value is listed as 0.7 in the series with Mus musculus [7] and 0.8 in the series on Mus musculus [8].
With `Nc1nc2c(ncn2[C@@H]2O[C@H](COC(=O)NCc3ccccc3)[C@@H](O)[C@H]2O)c(=O)[nH]1`, the solubility result in series [3] was “Insoluble”. Further, in [4], the dissociation constant (Kd) was found to be 8.09 µM.
Turning to `Nc1nc2c(ncn2[C@@H]2O[C@H](CNS(=O)(=O)NC(=O)CCc3c[nH]c4ccccc34)[C@@H](O)[C@H]2O)c(=O)[nH]1`, in series [2], the solubility result is on record as “Soluble”.
For `Nc1ncnc2c1ncn2[C@@H]1O[C@H](CNS(=O)(=O)NC(=O)CCCC[C@@H]2SC[C@@H]3NC(=O)N[C@@H]32)[C@@H](O)[C@H]1O`, the IC50 in series [9] amounted to 25.5 µM.
With `Nc1nc2c(ncn2[C@@H]2O[C@H](COP(=O)(O)O)[C@@H](O)[C@H]2O)c(=O)[nH]1`, binding in [4] was put at a Kd of 67 µM.
For the molecule `Nc1nc2c([C@@H]3O[C@H](COS(=O)(=O)NC(=O)CCc4c[nH]c5ccccc45)[C@@H](O)[C@H]3O)scc2c(=O)[nH]1`, the solubility entry in [1] is reported as “Soluble”. The affinity in series [4], expressed as Kd, was 5.2 µM.
With `O=C(CCc1c[nH]c2ccccc12)NS(=O)(=O)OC[C@H]1O[C@@H](n2cnc3c2ncn2ccnc32)[C@@H](O)C1O` (stereo partly specified), the solubility entry in series [2] is given as “Soluble”. In addition, the ED50 with Mus musculus [5] turned out to be 4.6 mg/kg; in the series on Mus musculus [6], 3.6 mg/kg.
